Source: paper PMC3086468 (Journal of medicinal chemistry, 2011)
Like-named read-outs stand apart in the source and are kept apart here.

Legend:
JTAg cells = assay: TCR signaling in JTAg cells, Western blot; format: cell-based, human; settings: for TCR-induced phosphorylation of Lck at Y394: 50 μM compound, C305 stimulation 2 min, anti-pSrc(Y416) blot
Pep = assay: Lck Y394 phosphorylation in Ptpn22+/+ and Ptpn22−/− mouse T cells; format: cell-based; settings: 50 μM, stimulated with anti-CD3 and anti-CD4
primary human T cells = assay: TCR-induced phosphorylation in primary human T cells; format: cell-based; settings: 50 μM, anti-CD3/anti-CD28 1 min
LYP = target: T1, LYP (Homo sapiens, UniProt Q9Y2R2); format: biochemical
T1 sequence (Q9Y2R2 2-309): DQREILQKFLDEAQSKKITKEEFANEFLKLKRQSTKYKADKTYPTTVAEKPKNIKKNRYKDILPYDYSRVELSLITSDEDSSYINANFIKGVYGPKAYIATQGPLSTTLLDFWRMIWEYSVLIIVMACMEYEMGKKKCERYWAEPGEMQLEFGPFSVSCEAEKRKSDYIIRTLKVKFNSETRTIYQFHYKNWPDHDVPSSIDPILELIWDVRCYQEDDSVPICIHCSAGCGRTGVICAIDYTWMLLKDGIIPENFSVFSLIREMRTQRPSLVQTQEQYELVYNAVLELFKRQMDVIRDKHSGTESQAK

With `CCOc1ccc2nc(NC(=O)CSc3nc4sc(C)c(C)c4c(=O)[nH]3)sc2c1` [Compound 1] the “TCR-induced phosphorylation of Lck at Y394” value (JTAg cells; JTAg cells) was “lack of activity”.

For `CCc1cccc(C)c1NC(=O)CSc1nc2c(C)ccc(C)c2cc1C#N` [Compound 2], the “phosphorylation of Lck at Y505” value (JTAg cells; JTAg cells treated with compound (data not shown)) was “unable to detect increased phosphorylation of Lck at Y505” and the “TCR-induced phosphorylation of Lck at Y394” value (JTAg cells; JTAg cells) was “lack of activity”.

For `Cc1ccc2[nH]c(=O)c(C(c3nnnn3C3CCCC3)N3CCCC4(CCCCC4)C3)cc2c1` (centres unmarked) [Compound 4], the ERK1/2 phosphorylation (JTAg cells; JTAg cells, 50 μM, C305 2 min) was “increased ERK1/2 phosphorylation”, the “TCR-stimulated phosphorylation of ZAP70” value (JTAg cells; JTAg cells, 50 μM, C305 2 min) was “increased TCR-stimulated phosphorylation of ZAP70” and the “Lck phosphorylation at Y394, wild type (Ptpn22+/+) T cells” value (Pep) was “increased Lck phosphorylation at Y394”. For the same compound, the “Lck phosphorylation, Ptpn22−/− T cells” value (Pep) was “no effect on phosphorylation of Lck” and the “TCR-induced phosphorylation of Lck, ZAP70 and LAT” value (primary human T cells) was “equally able to boost TCR-induced phosphorylation of Lck, ZAP70, and linker for activation of T cells (LAT)”.

For `Cc1ccc2[nH]c(=O)c(C(c3nnnn3C3CCCC3)N3CCN(C(c4ccccc4)c4ccccc4)CC3)cc2c1` (centres unmarked) [Compound 4f], the “relationship between IC50 and substrate concentration” value (LYP) was “independent from substrate concentration” and the α (LYP; pH 6) was 1.93 ± 1.27.

For `Cc1ccc2[nH]c(=O)c(C(c3nnnn3C3CCCC3)N(Cc3ccccc3)Cc3ccc(Cl)cc3)cc2c1` (centres unmarked) [Compound 4g], the “dual inhibition plot vs compound 13” value (LYP; 13.72 μM pY peptide, 25 nM LYP) was “converging lines”, the α (LYP; mixed model inhibition fit, pY peptide, pH 6.0, 37 °C) was 2.96 ± 2.48 and the “relationship between IC50 and substrate concentration” value (LYP; pY peptide, 25 nM LYP) was “independent from substrate concentration”.

In the case of `O=C(CSc1nc(C2CC2)nc2sc3c(c12)CCCC3)NCc1ccc2c(c1)OCO2` [Compound 6], the “TCR-induced phosphorylation of Lck at Y394” value (JTAg cells; JTAg cells) is reported as “lack of activity”.
